Source: ChEMBL document CHEMBL3046090, “Mechanism of the Phytotoxic Action of Herbicidal N-Isobutyl-N-(4-substituted benzyl)-4-halo-2-pentenamides” (J Pestic Sci, 2002)
Active and inactive are the calls of the source. The rule behind the calls is not given here.

Columns and labels:
Gossypium hirsutum [1] = assay: Phytotoxicity against Gossypium hirsutum (cotton) seedlings assessed as cotyledons are damaged with green spots measured under light conditions at 100 uM; type: functional
Lathyrus oleraceus [2] = assay: Inhibition of Succinate-cytochrome c reductase in Pisum sativum (pea) mitochondrial respiratory-chain electron-transport system at 100 uM
Gossypium hirsutum [3] = assay: Phytotoxicity against Gossypium hirsutum (cotton) seedlings assessed as light darkening measured under dark conditions at 100 uM; type: functional, organism-based
Gossypium hirsutum [4] = assay: Phytotoxicity against Gossypium hirsutum (cotton) seedlings assessed as cotyledons are killed and stems are partially survived measured under light conditions at 100 uM; type: functional, organism-based
Gossypium hirsutum [5] = assay: Phytotoxicity against Gossypium hirsutum (cotton) seedlings assessed as damage measured under dark conditions at 100 uM; type: functional, organism-based
[6] = Dissociation constant, pKa of the compound; type: physicochemical
Gossypium hirsutum [7] = assay: Phytotoxicity against Gossypium hirsutum (cotton) seedlings assessed as moderate darkening measured under dark conditions at 100 uM; type: functional, organism-based
Gossypium hirsutum [8] = assay: Phytotoxicity against Gossypium hirsutum (cotton) seedlings assessed as heavily dark-browning with wrinkling measured under dark conditions at 100 uM; type: functional, organism-based
Gossypium hirsutum [9] = assay: Phytotoxicity against Gossypium hirsutum (cotton) seedlings assessed as cotyledons are killed but stems are not wilted measured under light conditions at 100 uM; type: functional, organism-based
Gossypium hirsutum [10] = assay: Phytotoxicity against Gossypium hirsutum (cotton) seedlings assessed as complete killing measured under light conditions at 100 uM; type: functional, organism-based
Lathyrus oleraceus [11] = assay: Inhibition of Succinate-cytochrome c reductase in Pisum sativum (pea) mitochondrial respiratory-chain electron-transport system at 0.1 uM

CC(Cl)/C=C/C(=O)N(Cc1ccc(S(C)(=O)=O)cc1)CC(C)C (stereo not given)
Activity (Gossypium hirsutum [1]): 50% | inhibition (Lathyrus oleraceus [2]): 5.8% | Activity (Gossypium hirsutum [3]): Active

CC(C)Oc1cc(-n2nc(C(C)(C)C)oc2=O)c(Cl)cc1Cl
Activity (Gossypium hirsutum [4]): Active | Activity (Gossypium hirsutum [5]): inactive

O=C1C2=C(CCCC2)C(=O)N1c1ccc(Cl)cc1 [CHLOROPHTHALIUM]
pKa [6]: 6.43

CC(Cl)/C=C/C(=O)N(Cc1ccc(C(F)(F)F)cc1)CC(C)C (stereo not given)
Activity (Gossypium hirsutum [1]): 10% | inhibition (Lathyrus oleraceus [2]): 1.2% | Activity (Gossypium hirsutum [7]): Active

CC(Br)/C=C/C(=O)N(Cc1ccc(Cl)cc1)CC(C)C (stereo not given)
Activity (Gossypium hirsutum [8]): Active | Activity (Gossypium hirsutum [9]): Active | inhibition (Lathyrus oleraceus [2]): 0%

O=[N+]([O-])c1ccc(Oc2ccc(Cl)cc2Cl)cc1 [NITROFEN]
Activity (Gossypium hirsutum [1]): 10% | Activity (Gossypium hirsutum [5]): inactive

CC(Cl)/C=C/C(=O)N(Cc1ccc(C#N)cc1)CC(C)C (stereo not given)
Activity (Gossypium hirsutum [8]): Active | Activity (Gossypium hirsutum [10]): Active | pKa [6]: 4.82 | inhibition (Lathyrus oleraceus [2]): 4.6%

COC(=O)CSc1cc(/N=c2\sc(=O)n3n2CCCC3)c(F)cc1Cl
Activity (Gossypium hirsutum [10]): Active | Activity (Gossypium hirsutum [5]): inactive

CC(Cl)/C=C/C(=O)N(Cc1ccc(Cl)cc1)CC(C)C (stereo not given)
Activity (Gossypium hirsutum [9]): Active | inhibition (Lathyrus oleraceus [2]): 0% | Activity (Gossypium hirsutum [7]): Active

CCCCCC[C@H]1C(=O)O[C@H](C)[C@H](NC(=O)c2cccc(NC=O)c2O)C(=O)O[C@@H](C)[C@@H]1OC(=O)CC(C)C
inhibition (Lathyrus oleraceus [11]): 100%

CCOc1cc(Oc2ccc(C(F)(F)F)cc2Cl)ccc1[N+](=O)[O-] [OXYFLUORFEN]
pKa [6]: 7.63
